Legend:
IL-1 = experiment: Example 6: IL-1 production by peritoneal macrophages in response to LPS; format: in vivo, BALB/c mice; conditions: 2 injections 12 hours apart; macrophages stimulated with LPS 25 μg/ml 24 hours; thymocyte co-stimulation bioassay; FIG. 4
Protocol: Mice (BALB/c, female) 13-14 g, 5 animals in each group, received 2 injections of MDPs, 12 hours apart. The MDPs tested were MDP, muroctasin, MDP-Thr, MDP-OBu, GMDP-LL, GMDP-Lys(St) and GMDP-A. After the last injection, peritoneal cells were collected and the induction of IL-1 secretion by peritoneal macrophages was tested.
Macrophages were collected from the peritoneal cavity of mice by lavage with Hank's balanced salt solution. After washing the cells, they were then placed in wells of flat-bottomed 96-well plates and incubated at 37° C. for 1 hour in RPMI containing 5% FCS. The plates were then washed with warm RPMI to remove non-adhering cells. LPS (25 μg/ml) was then added in fresh culture medium and the plates were further cultured for 24 hours.
Production of IL-1 by peritoneal macrophages was assayed by thymocyte co-stimulation bioassay. Thymocytes from (CBA*C57BL.6)F1 mice (106), PHA (1 μg.ml), and the tested supernatant (50 μl) were placed into the wells of flat-bottomed 96-well plates. Thymocyte proliferation rate was measured 72 hours later by the incorporation of 3H TdR (1 μCi.well) during 6 hours prior to culture termination.

TNFα = experiment: Example 8: TNF induction by muramyl peptides; format: in vivo, BALB/c mice; conditions: C. parvum-primed mice, 100 μg (equimolar) IP, LPS 25 μg 18 hours later; FIG. 6
Protocol: Here, the muramyl peptides tested were prototype MDP, GMDP, GMDP-A, GMDP-OBu, GMDP-Lys(St), GMDPA-Lys(St), GMDP-Benz and Thr-MDP.
(§1) BALB/mice (6 mice/groups) were injected intraperitoneally with 1.4 mg of dead C. parvum (0.2 ml of a 7 mg/ml suspension). Mice were subsequently (2 weeks later) treated with saline, MDP (100 μg) or analogue (100 μg) in 0.5 ml saline IP. The dose of each `MDP` was adjusted so that animals received equimolar amounts. LOS (25 μg) was injected 18 hours after the injection of MDP/analogue and the mice were subsequently sacrificed and bled out. TNF was determined by standard capture ELISA assay.

Pyrogenicity = conditions: in vivo
Protocol: The expression "non pyrogenic or of low pyrogenicity" refers to a compound which induces an increase in temperature of an adult human of less than half a degree following the administration of 1 to 2 mg of the compound.
First, muramyl peptide compounds useful in the invention may be non-pyrogenic. Pyrogenicity may be simply measured by methods well known in the art.

[1] = system: LPS-induced mortality in mice; experiment: Example 3: LPS-induced mortality in mice; format: in vivo, BALB/c mice; conditions: i.p. twice daily 100 μg or molar equivalent per mouse for 9 days before 300 μg LPS; mortality 2 days after LPS; FIG. 1
Protocol: 25 female BALB/c mice weighing 16-18 g each were divided into 5 groups, each group containing 5 animals. Each group of mice received twice-daily doses of saline, GMDP, GMDP-OBu, MDP or GMDP-A. The compounds were administered by intra-peritoneal injection in twice-daily doses of 100 μg or the molar equivalent per mouse during a 9-day period before the injection of 300 μg LPS per mouse. […] Thus GMDP and GMDP-A would be useful in the treatment and prevention of sepsis and septic shock, whereas MDP and GMDP-OBu would not.

serum TNF = experiment: Example 7: LPS induction of serum TNF; format: in vivo, BALB/c mice; conditions: C. parvum-primed mice, 100 μg (equimolar) IP, LPS 25 μg 18 hours later; FIG. 5
Protocol: as §1, with “In this experiment, 4 compounds were tested and these are: MDP, GMDP-A, GMDP-OBu and GMDP. Saline was administered to control mice. BALB/c mice” for “BALB/mice”, “mice/group)” for “mice/groups)”, “suspension.).” for “suspension).”, “LPS” for “LOS”, “and” for “and the”

Compound | suppression of IL-1 production (IL-1) | effect on LPS-induced TNFα production (TNFα) | pyrogenicity (Pyrogenicity) | effect on LPS-induced mortality [1] | effect on LPS induction of serum TNF (serum TNF)
CCCCOC(=O)[C@@H](CCC(N)=O)NC(=O)[C@H](C)NC(=O)[C@@H](C)O[C@H]1[C@H](O)[C@@H](CO)OC(O)[C@@H]1NC(C)=O (stereo partly drawn) [MDP-OBu, N-acetylmuramyl-L-alanyl-D-glutamine-α-N-butyl ester, reference compound] | suppress the IL-1 response to LPS |  |  |  | 
N*-[N-Acetyl-D-glucosaminyl-(β1-4)-N-acetyl-muramyl-L-alanyl-γ-D-glutamyl]-N*-stearoyl-L-lysine [GMDPA-Lys(St)] |  | enhance LPS-induced TNF production |  |  | 
N*-[N-acetyl-D-glucosaminyl-(β1-4)-N-acetylmuramyl-L-alanyl-D-isoglutaminyl]-N*-stearoyl-L-lysine [GMDP-Lys(St)] | suppress the IL-1 response to LPS | enhance LPS-induced TNF production |  |  | 
N-acetyl-D-glucosaminyl-(β1-4)-N acetylmuramyl-L-alanyl-D-glutamine n-butyl ester [GMDP-OBu] |  | consistently failed to synergise with LPS |  |  | 
N-acetyl-D-glucosaminyl-(β1-4)-N-acetylmuramyl-L-alanyl-D-glutamicacid [GMDP-A] | suppress the IL-1 response to LPS |  | even less pyrogenic analogue | antagonise the effect of LPS | pro-inflammatory, causing an enhancement of the TNF levels induced by LPS
